Experiment: case report: enlarged prostate with frequent urination
Assay type: in vivo, human
Settings: person, prescribed for enlarged prostate
From the text: The 9-herb composition and Incontinence. Person diagnosed with having an enlarged prostate suffered from frequent-urination problems including increased daily frequency and reduced volume. They had the urge to urinate every two hours and the amount was only a few drops. Their symptoms were attributed to old age. […] After a period of time on this regimen, their urinary frequency decreased. The person reports that they only go to the bathroom every four hours instead of every two hours during the day. They are able to urinate what they consider a normal amount of urine in a steady stream as opposed to the dribbling they experienced prior to taking the 9-herb composition. The biggest benefit they experienced, however, is sleeping through the night without having to get up and go to the bathroom. Because they are sleeping better, they have more energy throughout the day.

CC(C)(C)NC(=O)[C@H]1CC[C@H]2[C@@H]3CC[C@H]4NC(=O)C=C[C@]4(C)[C@H]3CC[C@]12C [PROSCAR]
urination problem: did not alleviate the urination problem

From patent publication US7449202B1, “Compositions and methods for prostate and kidney health and disorders, an herbal preparation” (Integrated Chinese Medicine Holdings, Ltd., priority 2003, dated 2008)
